Measurements as given in BindingDB's records for doi:10.1021/jm00045a013 (Sandoz Forschungsinstitut Ges.M.B.H., 1994).

What was measured:
[1] = molecular target: T1, Dimer of Gag-Pol polyprotein [489-587] (Human immunodeficiency virus 1, UniProt P12497); experiment: Protease Inhibition Assay
T1 construct: 489-587
Experimental: (§1) Enzymatic activity was measured by following cleavage of the substrate H-Lys-Ala-Arg-Val-Leu-pNph-Glu-Ala-Nle-NH2. Products of the cleavage reaction were quantified by HPLC detection

[2] = molecular target: T2, Dimer of Gag-Pol polyprotein [514-612] (Human immunodeficiency virus 2, UniProt P04584); experiment: Protease Inhibition Assay
T2 construct: 514-612
T2 sequence (P04584 whole entry): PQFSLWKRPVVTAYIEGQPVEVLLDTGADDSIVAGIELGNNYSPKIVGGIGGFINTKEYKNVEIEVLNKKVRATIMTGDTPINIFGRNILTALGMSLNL
Experimental: as §1

Structure (SMILES)	Ki ([1]; pH 6.25, 37 °C) [nM]	Ki [2] [nM]	other results
CCC(C)[C@H](NC(=O)OCc1ccccc1)C(=O)N[C@@H](Cc1ccccc1)[C@@H](O)[C@@H](NCc1ccccc1)C(=O)N[C@H](C(=O)NCc1ccccc1)C(C)C (stereo partly drawn) [5PhBuCOOH deriv.]	8.3	–	–
CCC(C)[C@H](NC(=O)[C@H](NCc1ccccc1)[C@H](O)[C@H](Cc1ccccc1)NC(=O)[C@@H](NC(=O)OCc1ccccc1)C(C)C)C(=O)NCc1ccccc1 (stereo partly drawn) [benzyl N-[(1S)-1-{[(2S,3R,4R)-4-(benzylamino)-4-{[(1S,2R)-1-(benzylcarbamoyl)-2-methylbutyl]carbamoyl}-3-hydroxy-1-phenylbutan-2-yl]carbamoyl}-2-methylpropyl]carbamate]	> 3000	–	–
CC(C)[C@H](NC(=O)OCc1ccccc1)C(=O)N[C@@H](Cc1ccccc1)[C@@H](O)[C@@H](NCc1ccccc1)C(=O)N[C@H](C(=O)NCc1ccccc1)C(C)(C)C [benzyl N-[(1S)-1-{[(2S,3R,4R)-4-(benzylamino)-4-{[(1S)-1-(benzylcarbamoyl)-2,2-dimethylpropyl]carbamoyl}-3-hydroxy-1-phenylbutan-2-yl]carbamoyl}-2-methylpropyl]carbamate]	20	–	–
COc1ccc(CN[C@@H](C(=O)N[C@H](C(=O)NCc2nc3ccccc3[nH]2)C(C)C)[C@H](O)[C@H](Cc2ccccc2)NC(=O)[C@@H](NC(=O)CCc2ccc(O)cc2)C(C)(C)C)cc1 [5PhBuCOOH deriv.]	–	63	–
CC(C)[C@H](NC(=O)[C@H](NCc1ccccc1)[C@H](O)[C@H](Cc1ccccc1)NC(=O)[C@H](CCC(=O)O)NC(=O)OCc1ccccc1)C(=O)NCc1ccccc1 [5PhBuCOOH deriv.]	45	–	–
COc1ccc(CN[C@@H](C(=O)N[C@H](C(=O)NCc2nc3ccccc3[nH]2)C(C)C)[C@H](O)[C@H](Cc2ccccc2)NC(=O)[C@@H](NC(=O)[C@@](C)(O)c2ccccc2)C(C)(C)C)cc1 [5PhBuCOOH deriv.]	–	110	Ki [1]: 6 nM
CC(C)[C@H](NC(=O)[C@H](NCc1ccc(Cl)cc1)[C@H](O)[C@H](Cc1ccccc1)NC(=O)[C@@H](NC(=O)OCc1ccccc1)C(C)(C)C)C(=O)NCc1nc2ccccc2[nH]1 [benzyl N-[(1S)-1-{[(2S,3R,4R)-4-{[(1S)-1-[(1H-1,3-benzodiazol-2-ylmethyl)carbamoyl]-2-methylpropyl]carbamoyl}-4-{[(4-chlorophenyl)methyl]amino}-3-hydroxy-1-phenylbutan-2-yl]carbamoyl}-2,2-dimethylpropyl]carbamate]	–	17	–
COc1ccc(CN[C@@H](C(=O)N[C@H](C(=O)NCc2nc3ccccc3[nH]2)C(C)C)[C@H](O)[C@H](Cc2ccccc2)NC(=O)[C@@H](NC(=O)OCc2ccccc2)C(C)(C)C)cc1 [5PhBuCOOH deriv.]	–	52	–
CC(C)[C@H](NC(=O)OCc1ccccc1)C(=O)N[C@@H](Cc1ccccc1)[C@@H](O)[C@@H](NCc1ccccc1)C(=O)N[C@H](C(=O)NCc1ccccc1)C(C)C [5PhBuCOOH deriv.]	–	–	Ki ([2]; pH 4.7, 37 °C): 180 nM
CC(C)[C@H](NC(=O)OCc1ccccc1)C(=O)N[C@@H](Cc1ccccc1)[C@@H](O)[C@@H](NCc1ccccc1)C(=O)N[C@@H](C(=O)NCc1ccccc1)C(C)(C)C [5PhBuCOOH deriv.]	–	–	Ki [1]: > 3000 nM
COc1ccc(CN[C@@H](C(=O)N[C@H](C(=O)NCc2ccccc2)C(C)C)[C@H](O)[C@H](Cc2ccccc2)NC(=O)[C@@H](NC(=O)OCc2ccccc2)C(C)C)cc1 [benzyl N-[(1S)-1-{[(2S,3R,4R)-4-{[(1S)-1-(benzylcarbamoyl)-2-methylpropyl]carbamoyl}-3-hydroxy-4-{[(4-methoxyphenyl)methyl]amino}-1-phenylbutan-2-yl]carbamoyl}-2-methylpropyl]carbamate]	–	–	Ki ([2]; pH 4.7, 37 °C): 39 nM
CC(C)[C@H](NC(=O)[C@H](NCc1ccccc1)[C@H](O)[C@H](Cc1ccccc1)NC(=O)[C@@H](NC(=O)OCc1ccccc1)C(C)(C)C)C(=O)NCc1ccccc1 [5PhBuCOOH deriv.]	–	–	Ki ([2]; pH 4.7, 37 °C): 54 nM
